# Tested on: NL-RLuc virus
# Assay: Inhibition of HIV replication (NL-RLuc virus, luciferase readout in MT-2 cells)
# Assay type: cell-based
# Settings: Human immunodeficiency virus 1, MT2, 120 h, MT-2 cells infected with NL-RLuc virus, 5 days of incubation, 10% FBS, at least 2 experiments
# Summary of the method: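 EC50 derived via median effect equation from at least 2 experiments, using luciferase expression as virus-growth readout. Replication-competent NL-RLuc reporter virus (nef partly replaced by Renilla luciferase) infected MT-2 cells with serial compound dilutions; 5-day incubation in RPMI 1640 plus 10% FBS.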
row,Structure (SMILES),EC50 [nM]
1,"Cc1nc(-n2ccnc2)c(-c2ccc(OCCc3ccc(F)cc3)cc2)c(N2CCC(C)(C)CC2)c1[C@H](OC(C)(C)C)C(=O)O [Example 45, (S)-2-(tert-Butoxy)-2-(4-(4,4-dimethylpiperidin-1-yl)-5-(4-(4-fluorophenethoxy)phenyl)-6-(1H-imidazol-1-yl)-2-methylpyridin-3-yl)acetic acid]",4
2,"Cc1ncc(-c2ccc(OCCc3c(F)cccc3F)cn2)c(N2CCC(C)(C)CC2)c1[C@H](OC(C)(C)C)C(=O)O [Example 327, (2S)-2-(tert-butoxy)-2-{5-[2-(2,6-difluorophenyl)ethoxy]-4′-(4,4-dimethylpiperidin-1-yl)-6′-methyl-[2,3′-bipyridine]-5′-yl}acetic acid]",5
3,"Cc1ncc(-c2cnc(OCCc3c(F)cccc3F)c(F)c2)c(N2CCC(C)(C)CC2)c1[C@H](OC(C)(C)C)C(=O)O [Example 393, (2S)-2-(tert-butoxy)-2-{6′-[2-(2,6-difluorophenyl)ethoxy]-4-(4,4-dimethylpiperidin-1-yl)-5′-fluoro-6-methyl-[3,3′-bipyridine]-5-yl}acetic acid]",2
4,"Cc1ncc(-c2ccc(OCc3ccccc3)cn2)c(N2CCC(C)(C)CC2)c1[C@H](OC(C)(C)C)C(=O)O [Example 288, (S)-2-(5-(Benzyloxy)-4′-(4,4-dimethylpiperidin-1-yl)-6′-methyl-[2, 3′-bipyridin]-5′-yl)-2-(tert-butoxy)acetic acid]",1
5,"Cc1ncc(-c2ccc(O[C@H](C)C(C)C)cc2)c(N2CCC(C)(C)CC2)c1[C@H](OC(C)(C)C)C(=O)O [Example 362, (2S)-2-(tert-butoxy)-2-[4-(4,4-dimethylpiperidin-1-yl)-2-methyl-5-(4-{[(2R)-3-methylbutan-2-yl]oxy}phenyl)pyridin-3-yl]acetic acid]",8
6,"Cc1nc(NCCCN2CCCCC2)c(-c2ccc(OCCc3ccc(F)cc3)cc2)c(N2CCC(C)(C)CC2)c1[C@H](OC(C)(C)C)C(=O)O [Example 35, (S)-2-(tert-Butoxy)-2-(4-(4,4-dimethylpiperidin-1-yl)-5-(4-(4-fluorophenethoxy)phenyl)-2-methyl-6-((3-(piperidin-1-yl)propyl)amino)pyridin-3-yl)acetic acid]",1
7,"Cc1nc(C(C)(C)O)c(-c2ccc(OCCc3ccc(F)cc3)c(F)c2)c(N2CCC(C)(C)CC2)c1[C@H](OC(C)(C)C)C(=O)O (single isomer, unassigned) [Example 242]",5
8,"Cc1ncc(-c2cnc(OCCc3ccccc3F)c(F)c2)c(N2CCC(C)(C)CC2)c1[C@H](OC(C)(C)C)C(=O)O [Example 120, (S)-2-(tert-Butoxy)-2-(4-(4,4-dimethylpiperidin-1-yl)-5′-fluoro-6′-(2-fluorophenethoxy)-6-methyl-[3, 3′-bipyridin]-5-yl)acetic acid]",2
9,"Cc1ccc(CCOc2ncc(-c3cnc(C)c([C@H](OC(C)(C)C)C(=O)O)c3N3CCC(C)(C)CC3)cc2F)cc1 [Example 405, (2S)-2-(tert-butoxy)-2-[4-(4,4-dimethylpiperidin-1-yl)-5′-fluoro-6-methyl-6′-[2-(4-methylphenyl)ethoxy]-[3,3′-bipyridine]-5-yl]acetic acid]",4
10,"Cc1ncc(-c2ccc(F)nc2OCC(C)C)c(N2CCC(C)(C)CC2)c1[C@H](OC(C)(C)C)C(=O)O [Example 435, (2S)-2-tert-Butoxy-2-(4-(4,4-dimethylpiperidin-1-yl)-6′-fluoro-2′-isobutoxy-6-methyl-3, 3′-bipyridin-5-yl)acetic acid]",501
11,"Cc1nc(CN2CCC3(CCC3)CC2)c(-c2ccc(OCCc3ccc(F)cc3)c(F)c2)c(N2CCC(C)(C)CC2)c1[C@H](OC(C)(C)C)C(=O)O [Example 231, (S)-2-(6-((7-Azaspiro[3.5]nonan-7-yl)methyl)-4-(4,4-dimethylpiperidin-1-yl)-5-(3-fluoro-4-(4-fluorophenethoxy)phenyl)-2-methylpyridin-3-yl)-2-(tert-butoxy)acetic acid]",0.6
12,"Cc1ncc(-c2ccc(OCc3c(Cl)cccc3Cl)cn2)c(N2CCC(C)(C)CC2)c1[C@H](OC(C)(C)C)C(=O)O [Example 355, (2S)-2-(tert-butoxy)-2-{5-[(2,6-dichlorophenyl)methoxy]-4′-(4,4-dimethylpiperidin-1-yl)-6′-methyl-[2,3′-bipyridine]-5′-yl}acetic acid]",1
13,"Cc1ncccc1Nc1nc(C)c([C@H](OC(C)(C)C)C(=O)O)c(N2CCC(C)(C)CC2)c1-c1ccc(OCCc2ccc(F)cc2)cc1 [Example 94, (S)-2-(tert-Butoxy)-2-(4-(4,4-dimethylpiperidin-1-yl)-5-(4-(4-fluorophenethoxy)phenyl)-2-methyl-6-((2-methylpyridin-3-yl)amino)pyridin-3-yl)acetic acid]",6
14,"Cc1nc(Nc2ccnnc2)c(-c2ccc(OCCc3ccc(F)cc3)c(F)c2)c(N2CCC(C)(C)CC2)c1[C@H](OC(C)(C)C)C(=O)O [Example 74, (S)-2-(tert-Butoxy)-2-(4-(4,4-dimethylpiperidin-1-yl)-5-(3-fluoro-4-(4-fluorophenethoxy)phenyl)-2-methyl-6-(pyridazin-4-ylamino)pyridin-3-yl)acetic acid]",2
15,"COc1c(F)cc(-c2c(CN3CCCC3)nc(C)c([C@H](OC(C)(C)C)C(=O)O)c2N2CCC(C)(C)CC2)cc1F [Example 198, (2S)-2-(tert-Butoxy)-2-[5-(3,5-difluoro-4-methoxyphenyl)-4-(4,4-dimethylpiperidin-1-yl)-2-methyl-6-[(pyrrolidin-1-yl)methyl]pyridin-3-yl]acetic acid]",12
16,"Cc1ncc(-c2cnc(OCCC(C)C)c(F)c2)c(N2CCC(C)(C)CC2)c1[C@H](OC(C)(C)C)C(=O)O [Example 368, (2S)-2-(tert-butoxy)-2-[4-(4,4-dimethylpiperidin-1-yl)-5′-fluoro-6-methyl-6′-(3-methylbutoxy)-[3,3′-bipyridine]-5-yl]acetic acid]",1
17,"Cc1nc(Nc2cccnc2F)c(-c2ccc(OCCc3ccc(F)cc3)cc2)c(N2CCC(C)(C)CC2)c1[C@H](OC(C)(C)C)C(=O)O [Example 90, (S)-2-(tert-Butoxy)-2-(4-(4,4-dimethylpiperidin-1-yl)-5-(4-(4-fluorophenethoxy)phenyl)-6-((2-fluoropyridin-3-yl)amino)-2-methylpyridin-3-yl)acetic acid]",5
18,"Cc1nc(N)c(-c2cnc(NCCc3ccc(F)cc3)c(F)c2)c(N2CCC(C)(C)CC2)c1[C@H](OC(C)(C)C)C(=O)O [Example 113, (S)-2-(2-Amino-4-(4,4-dimethylpiperidin-1-yl)-5′-fluoro-6′-((4-fluorophenethyl)amino)-6-methyl-[3, 3′-bipyridin]-5-yl)-2-(tert-butoxy)acetic acid]",3
19,"Cc1ncc(-c2ccc(OCCc3cccc(F)c3F)cn2)c(N2CCC(C)(C)CC2)c1[C@H](OC(C)(C)C)C(=O)O [Example 329, (2S)-2-(tert-butoxy)-2-{5-[2-(2,3-difluorophenyl)ethoxy]-4′-(4,4-dimethylpiperidin-1-yl)-6′-methyl-[2,3′-bipyridine]-5′-yl}acetic acid]",0.5
20,"Cc1ncc(-c2cnc(OCCc3cccc(F)c3)c(Cl)c2)c(N2CCC(C)(C)CC2)c1[C@H](OC(C)(C)C)C(=O)O [Example 251, (S)-2-(tert-Butoxy)-2-(5′-chloro-4-(4,4-dimethylpiperidin-1-yl)-6′-(3-fluorophenethoxy)-6-methyl-[3, 3′-bipyridin]-5-yl)acetic acid]",2
21,"Cc1nc(Nc2cccnc2)c(-c2ccc(OCCc3ccc(F)cc3)cc2)c(N2CCC(C)(C)CC2)c1[C@H](OC(C)(C)C)C(=O)O [Example 64, (S)-2-(tert-Butoxy)-2-(4-(4,4-dimethylpiperidin-1-yl)-5-(4-(4-fluorophenethoxy)phenyl)-2-methyl-6-(pyridin-3-ylamino)pyridin-3-yl)acetic acid]",5
22,"Cc1ncc(-c2cnc(O[C@H](C)C(C)C)c(F)c2)c(N2CCC(C)(C)CC2)c1[C@H](OC(C)(C)C)C(=O)O [Example 369, (2S)-2-(tert-butoxy)-2-[4-(4,4-dimethylpiperidin-1-yl)-5′-fluoro-6-methyl-6′-{[(2R)-3-methylbutan-2-yl]oxy}-[3,3′-bipyridine]-5-yl]acetic acid]",2
23,"Cc1ncc(-c2ccc3ccccc3n2)c(N2CCC(C)(C)CC2)c1[C@H](OC(C)(C)C)C(=O)O [Example 266, (S)-2-(tert-Butoxy)-2-(4-(4,4-dimethylpiperidin-1-yl)-2-methyl-5-(quinolin-2-yl)pyridin-3-yl)acetic acid]",11
24,"Cc1ncc(-c2ccc(OCCc3c(F)cccc3Cl)cn2)c(N2CCC(C)(C)CC2)c1[C@H](OC(C)(C)C)C(=O)O [Example 305, (2S)-2-(tert-butoxy)-2-{5-[2-(2-chloro-6-fluorophenyl)ethoxy]-4′-(4,4-dimethylpiperidin-1-yl)-6′-methyl-[2,3′-bipyridine]-5′-yl}acetic acid]",1
25,"Cc1ncc(-c2ccc(OCCc3ccc(F)cc3)cn2)c(N2CCC(C)(C)CC2)c1[C@H](OC(C)C)C(=O)O [Example 271, (S)-2-(4′-(4,4-Dimethylpiperidin-1-yl)-5-(4-fluorophenethoxy)-6′-methyl-[2, 3′-bipyridin]-5′-yl)-2-isopropoxyacetic acid]",3
26,"Cc1ncc(-c2cccc(OCCc3ccc(F)cc3)n2)c(N2CCC(C)(C)CC2)c1[C@H](OC(C)(C)C)C(=O)O [Example 280, (S)-2-(tert-Butoxy)-2-(4′-(4,4-dimethylpiperidin-1-yl)-6-(4-fluorophenethoxy)-6′-methyl-[2, 3′-bipyridin]-5′-yl)acetic acid]",20
27,"CC1(C)CCN(c2c(-c3ccc(OCCc4ccc(F)cc4)c(F)c3)cnc(Cl)c2[C@H](OC(C)(C)C)C(=O)O)CC1 [Example 214, (S)-2-(tert-Butoxy)-2-(2-chloro-4-(4,4-dimethylpiperidin-1-yl)-5-(3-fluoro-4-(4-fluorophenethoxy)phenyl)pyridin-3-yl)acetic acid]",9

# Source: patent US20200055839A1 (priority 2017, published 2020)
